Patent publication US11919869B2, “CD73 compounds” (Gilead Sciences, Inc., priority 2021, dated 2024)
Like-named read-outs stand apart in the source and are kept apart here.

Columns and labels:
[1] = Assay buffer stability (Tris buffer without alkaline phosphatase); assay type: physicochemical; details: 2 μM substrate, Tris buffer pH 7.8 without alkaline phosphatase
Description: (§1) Alkaline phosphatase stability assays were carried out using purified Bovine intestinal alkaline phosphatase. Duplicate sets were performed with a TECAN liquid handler. Assay substrate concentrations were 2 μM. Purified Bovine intestinal alkaline phosphatase was acquired through MilliPore Sigma as a lyophilized powder. Reaction mixtures were prepared by the addition of 2 μL compound (400 μM stock solution in DMSO) into wells of a 96-well plate containing […] Tris buffer (100 mM, pH 7.8, 1 mM MgCl2 and 1 mM ZnCl2) with and without 100 ng/mL purified Bovine intestinal alkaline phosphatase. Samples were assessed at time points of 3, 30, 60, 120, 180 and 240 minutes. At each time point, 25 μL of the reaction mixtures were added into a 96-well plate containing 225 μL of quench solution (99% Acetonitrile with 1% Formic Acid and 100 nM Labetalol as internal standard). The plates containing the quench samples were then vortexed at 1100 RPM for 10 minutes and centrifuged at 4500 RPM for 20 minutes. 150 μL of the resulting supernatant was transferred into a 96-well plate containing 150 μL of water and vortexed at 1100 RPM for 3 minutes to mix.
(§2) Samples were analyzed with a Leap HTC Autosampler and a Dionex UltiMate 3000 HPLC system interfaced to a Thermo Q-Exactive mass spectrometer operating in positive ion electrospray mode. A Thermo Scientific Hypersil GOLD (1.9 μM particle size, 50×2.1 mm) HPLC column was used and mobile phase was pumped at 0.5 mL/min. Elution of analytes was achieved by a series of linear gradients of acetonitrile in water containing 0.1% (v/v) formic acid. Quantification was by analyte/internal standard peak area ratio (PAR).

[2] = molecular target: T1, alkaline phosphatase (intestinal) (Bos taurus, UniProt P19111); experiment: Alkaline phosphatase stability assay; assay type: in vitro ADME; details: 2 μM substrate, 100 ng/mL purified Bovine intestinal alkaline phosphatase, Tris buffer pH 7.8; read-out: ALP half life
T1 construct: purchased MilliPore Sigma
T1 sequence (P19111 20-506 limits assumed): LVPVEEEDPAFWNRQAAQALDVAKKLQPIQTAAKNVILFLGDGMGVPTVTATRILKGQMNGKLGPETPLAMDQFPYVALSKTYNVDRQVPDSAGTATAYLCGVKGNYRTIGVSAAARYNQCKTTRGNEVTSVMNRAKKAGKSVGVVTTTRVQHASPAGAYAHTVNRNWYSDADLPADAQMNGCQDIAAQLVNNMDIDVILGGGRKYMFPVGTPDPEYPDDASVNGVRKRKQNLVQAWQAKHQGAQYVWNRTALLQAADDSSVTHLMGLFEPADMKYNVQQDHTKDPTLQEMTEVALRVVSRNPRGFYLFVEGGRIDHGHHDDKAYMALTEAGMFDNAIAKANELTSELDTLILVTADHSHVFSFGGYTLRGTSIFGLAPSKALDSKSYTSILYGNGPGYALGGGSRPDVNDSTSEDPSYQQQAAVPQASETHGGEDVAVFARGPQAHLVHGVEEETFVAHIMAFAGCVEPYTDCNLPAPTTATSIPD
Description: Alkaline Phosphatase Stability Assay
as §1, §2

[3] = In vivo rat pharmacokinetics; details: Wister Han rats, 100 mg-eq/kg
Description: In Vivo Rat Pharmacokinetics Experiments
In vivo Wister Han rat pharmacokinetic experiments of compound Comparator C and Example 4 were assessed as follows.
Compound Comparator C was dosed as a 100 mg/kg suspension to Wister Han rats (N=3) using the following formulation:30% captisol, 5% soluplus, 65% pH 2 water. Compound 1170997 was dosed separately as a 100 mg-eq/kg (123 mg/kg) solution to Wister Han rats (N=3) using the following formulation: 0.5% Methocel E4M Premium, 0.1% Tween-80, 99.4% Water. Samples were assessed for the presence of Comparator C.
Comparator C and Example 4. […] As is shown in Table 4, the AUC 0-24 h measured for Comparator C in plasma was higher after dosing with Example 4 than the value measured after dosing with an equivalent dose of Comparator C.

[4] = Thermodynamic solubility in FaSSIF and FeSSIF; assay type: physicochemical; details: 20 hours, ambient temperature
Description: Thermodynamic Solubility in FASSIF and FESSIF.
The aqueous solubility of compounds over a time of 20 hours was assessed. Solubility was determined at ambient temperature in buffered fasted-state simulated intestinal fluid (FaSSIF, pH 6.5) and buffered fed-state simulated intestinal fluid (FeSSIF, pH 5.0) prepared in-house using BioRelevant Simulated Intestinal Fluid (SIF) powder. Solids were added to FaSSIF or FeSSIF in 1.5-mL Eppendorf tubes, vortexed for 1 minute, then agitated for 20 hours in an Eppendorf ThermoMixer C. To determine concentration in solution, the suspensions were centrifuged for 10 min at 14,800 rpm and supernatants were diluted to a volume of 1 mL with 1:1 v/v acetonitrile:water. All diluted supernatants were analyzed by UPLC using a Waters Acquity UPLC with a PDA UV detector.

[5] = Kinetic solubility at pH 1 and 7; assay type: physicochemical; details: 23 °C, kinetic from dmso stock, 1.0% DMSO
Description: Kinetic Solubility at pH 1 and 7
100-fold dilutions of each compound as DMSO stock solution were prepared by combining 3 μL of DMSO stock with 297 μL of the appropriate media in a Millipore solubility filter plate with 0.45 μM polycarbonate filter membrane using Hamilton Starlet liquid handling. The final DMSO Concentration is 1.0% and maximum theoretical compound concentration is […] (assuming stock concentration of 10 mM). The filter plate was sealed. Following 24-hour incubation at ambient temperature (22.2-23.6° C.), the samples were vacuum filtered, and the filtrates were collected in a 96 well polypropylene plate for analysis. The collection plate was sealed for analysis. Filtrates were injected into the nitrogen detector for quantification. The equimolar nitrogen response of the detector is calibrated using standards which span the dynamic range of the instrument from 0.08 to 4500 μg/ml nitrogen. The filtrates were quantified with respect to this calibration curve. The calculated solubility values are corrected for background nitrogen present in the DMSO, and the media used to prepare the samples

half-life at 2 µM [1]: > 1580 min | half-life at 2 µM [2]: 4 min | AUC 0-24 h measured for Comparator C in plasma, compared with dosing an equivalent dose of Comparator C [3]: higher | FaSSIF (pH 6.5) ([4]; fasted-state simulated intestinal fluid pH 6.5): 1100 ug/mL | FeSSIF (pH 5.0) ([4]; fed-state simulated intestinal fluid pH 5.0): >5400 ug/mL | solubility kinetic at 24 h ([5]; aqueous buffer, pH 7, 24-hour incubation at ambient temperature, read-out: Kinetic Solubility pH 7): > 100 µM | solubility kinetic at 24 h ([5]; simulated gastric fluid, pH 1, 24-hour incubation at ambient temperature, read-out: Kinetic Solubility pH 1): 96 µM
SMILES: O=c1[nH]c(=O)n(COP(=O)(O)O)cc1-c1cc([C@H]2C[C@@H]2c2ccc3cnn(CC(F)(F)F)c3c2)c2ncc(F)n2n1 [Example 4, (5-(3-fluoro-8-((1S,2S)-2-(1-(2,2,2-trifluoroethyl)-1H-indazol-6-yl)cyclopropyl)imidazo[1,2-b]pyridazin-6-yl)-2,4-dioxo-3,4-dihydropyrimidin-1(2H)-yl)methyl dihydrogen phosphate]
